Results reported in US20240010684A1, “MASP INHIBITORY COMPOUNDS AND USES THEREOF” (BAYER AKTIENGESELLSCHAFT, priority 2020, published 2024).
pIC50: −log10 of the molar value. *1 amine or outer side, *2 acyl side, *3 side chain or, on linkers, in order; H or OH if unused. Where a SMILES comes first, the peptide text is derived from it. Bridges are numbered along the chain shown (N, C = ends). [ ]: non-standard residue; d: D form. Adipoyl = O=C(CCCCC(=O)[*:2])[*:1]; tBuAla = CC(C)(C)C[C@H](N)C(=O)O; Pen = CC(C)(S)[C@H](N)C(=O)O; Dap = NC[C@H](N)C(=O)O; Ahx = NCCCCCC(=O)O; Sar = CNCC(=O)O

Assays:
human MASP1 = human MASP1 (Homo sapiens (Human), UniProt P48740); assay: Biochemical human MASP1 assay (FRET substrate); settings: Average IC50; recombinant human MASP1; read-out: human MASP1 IC50
human MASP1, sequence (P48740 other isoform, or with tags, fused parts or gaps): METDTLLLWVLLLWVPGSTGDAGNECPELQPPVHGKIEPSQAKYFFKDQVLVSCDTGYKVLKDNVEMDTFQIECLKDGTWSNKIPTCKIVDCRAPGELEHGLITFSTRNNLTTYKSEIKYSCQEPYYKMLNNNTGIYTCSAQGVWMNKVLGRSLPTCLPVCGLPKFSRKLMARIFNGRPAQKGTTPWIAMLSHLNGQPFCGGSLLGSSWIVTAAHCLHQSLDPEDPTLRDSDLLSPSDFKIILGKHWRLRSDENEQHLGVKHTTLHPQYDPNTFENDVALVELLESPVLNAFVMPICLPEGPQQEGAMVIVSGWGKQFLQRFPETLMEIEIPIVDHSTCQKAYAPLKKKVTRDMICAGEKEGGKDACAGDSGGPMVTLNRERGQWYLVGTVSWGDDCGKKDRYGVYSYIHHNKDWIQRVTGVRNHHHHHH
Method in brief: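 IC50 derived from % inhibition versus compound concentration, with fluorescence increase read at 320/420 nm after 60-120 min at 32 C. Enzyme: HEK293-secreted, His-tagged human MASP1 fragment 297-699 at 20 nM in HEPES pH 8,0 buffer with NaCl, CHAPS, glutathione; substrate ABZ-peptide-Lys(Dnp)-NH2 added as 20 μM solution.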

rat MASP2 = rat MASP2 (Rattus norvegicus (Rat), UniProt Q9JJS8); assay: Biochemical rat MASP2 assay (FRET substrate); settings: Average IC50; recombinant rat MASP2; read-out: rat MASP2 IC50
rat MASP2, sequence (Q9JJS8 other isoform, or with tags, fused parts or gaps): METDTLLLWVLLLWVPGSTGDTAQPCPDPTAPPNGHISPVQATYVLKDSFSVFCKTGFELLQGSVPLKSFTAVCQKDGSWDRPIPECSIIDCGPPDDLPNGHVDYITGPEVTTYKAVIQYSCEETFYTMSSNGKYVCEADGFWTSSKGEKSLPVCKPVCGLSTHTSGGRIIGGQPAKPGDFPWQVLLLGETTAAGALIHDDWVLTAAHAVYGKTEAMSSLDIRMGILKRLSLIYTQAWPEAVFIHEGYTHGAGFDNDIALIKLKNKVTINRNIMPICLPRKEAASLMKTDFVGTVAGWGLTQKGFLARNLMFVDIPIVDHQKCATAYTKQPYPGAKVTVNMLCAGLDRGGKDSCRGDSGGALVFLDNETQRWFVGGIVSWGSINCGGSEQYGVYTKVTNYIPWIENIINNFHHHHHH
Source text: The MASP1 or MASP2 expression vectors were transfected into the HEK293 (ATCC No. CRL-1573) cell line using Lipofectamine LTX® Reagent (Thermo-Fischer), as described by the manufacturer. […] The MASP1 and M[…] were purified from the conditioned media by affinity chromatography on Ni-NTA Superflow resin (Qiagen) as described by the manufacturer.

human MASP2 = human MASP2 (Homo sapiens (Human), UniProt O00187); assay: Biochemical human MASP2 assay (FRET substrate); settings: Average IC50; recombinant human MASP2; read-out: human MASP2 IC50
human MASP2, sequence (O00187 other isoform, or with tags, fused parts or gaps): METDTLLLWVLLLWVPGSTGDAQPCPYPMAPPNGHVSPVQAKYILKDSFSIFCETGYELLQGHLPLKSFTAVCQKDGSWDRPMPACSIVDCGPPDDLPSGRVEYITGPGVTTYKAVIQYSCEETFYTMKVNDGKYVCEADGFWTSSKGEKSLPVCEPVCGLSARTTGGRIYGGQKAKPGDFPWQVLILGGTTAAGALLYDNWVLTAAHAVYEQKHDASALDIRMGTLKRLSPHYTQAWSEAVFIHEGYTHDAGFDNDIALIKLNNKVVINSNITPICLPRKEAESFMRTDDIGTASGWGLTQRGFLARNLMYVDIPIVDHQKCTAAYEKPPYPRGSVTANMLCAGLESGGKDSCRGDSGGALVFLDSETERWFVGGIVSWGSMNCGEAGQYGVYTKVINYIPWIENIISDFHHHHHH
Method in brief: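 IC50 came from % inhibition across compound concentrations, with fluorescence (ex 340 nm, em 490 nm) read after 60-120 min at 32 C. Substrate was a DABCYL FRET peptide, added as a 60 μM solution, cleaved by HEK293-expressed, Ni-NTA-purified mature recombinant human MASP2.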

[1] = system: Human C3-DEPOSITION SERUM; assay: C3 deposition assay, human serum on mannan-coated plates; type: biochemical; settings: Average IC50, read-out: Human C3-DEPOSITION SERUM IC50
Method in brief: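 Plates coated overnight at 4° C with S. cerevisiae mannan (10 μg/mL, pH 9.6), blocked with 1% BSA in TBS 2 h at 37° C; washes in TBS/0.05% Tween 20/5 mM CaCl2. Antibodies diluted in wash buffer with 0.5% BSA. Colorimetric read-out at 450 nm.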

rat MASP1 = rat MASP1 (Rattus norvegicus (Rat), UniProt Q8CHN8); assay: Biochemical rat MASP1 assay (FRET substrate); settings: Average IC50; recombinant rat MASP1; read-out: rat MASP1 IC50
rat MASP1, sequence (Q8CHN8 other isoform, or with tags, fused parts or gaps): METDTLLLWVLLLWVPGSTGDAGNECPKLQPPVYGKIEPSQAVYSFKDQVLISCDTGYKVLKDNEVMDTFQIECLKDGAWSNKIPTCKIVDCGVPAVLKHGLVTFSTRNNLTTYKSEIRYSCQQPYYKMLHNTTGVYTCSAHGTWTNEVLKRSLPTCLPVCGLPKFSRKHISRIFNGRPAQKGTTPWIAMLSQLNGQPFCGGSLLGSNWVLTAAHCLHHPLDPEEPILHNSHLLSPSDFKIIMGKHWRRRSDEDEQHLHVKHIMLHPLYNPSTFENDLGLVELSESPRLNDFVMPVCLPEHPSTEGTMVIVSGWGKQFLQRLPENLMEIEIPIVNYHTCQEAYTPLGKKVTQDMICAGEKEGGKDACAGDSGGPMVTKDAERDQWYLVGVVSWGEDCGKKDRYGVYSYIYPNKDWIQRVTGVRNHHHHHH
Source text: A truncated cDNA sequence of rat MASP1encoding the fragment corresponding to the amino acids 302-704 with a C-terminal His Tag and N-terminal Ig-kappa secretion signal (SEQ ID No: 4) was subcloned into the mammalian expression vector pcDNA3.1 (Invitrogen).
The MASP1 or MASP2 expression vectors were transfected into the HEK293 (ATCC No. CRL-1573) cell line using Lipofectamine LTX® Reagent (Thermo-Fischer), as described by the manufacturer. The mature form of the recombinant rat MASP1 and MASP2 proteases were secreted into the culture medium. The MASP1 and MASP2 proteins were purified from the conditioned media by affinity chromatography on Ni-NTA Superflow resin (Qiagen) as described by the manufacturer.
4.2 Biochemical Rat MASP1 Assay.
Recombinant rat MASP1 enzyme produced in the HEK 293 cells was diluted in the reaction buffer (50 mM HEPES pH 8,0; 100 mM NaCl; 0,01% CHAPS; 0.5 mM Gluthathione) to the concentration of 4 nM and 25 μl was transferred into each single well of 384-well white microtiter plate (Greiner Bio One 781075). 1 μl of the inhibitor compound solution (dissolved in DMSO, at the corresponding concentration) or pure DMSO as a control was added to the same wells. The enzymatic reaction was initiated by addition of 25 μl of 40 μM solution of the FRET substrate Dabcyl-[…]-Glu(Edans)-NH2; (Dabcyl-4-((4-(dimethylamino)phenyl)azo)benzoic acid; Edans-5-[(2-Aminoethyl) amino]naphthalene-1-sulfonyl; custom synthesis by Jerini Peptide Technologies, Berlin) in the reaction buffer. The microtiter plate was incubated for 60-120 min at the temperature of 32 C. The increase of fluorescence intensity was measured in appropriate fluorescence plate reader (e.g. TECAN Ultra) using excitation wavelength of 340 nm and emission wavelength of 490 nm. IC50 values were calculated from percentage of inhibition of rat […] activity as a function of test compound concentration.

| pIC50 (human MASP1) | pIC50 (rat MASP2) | pIC50 (human MASP2) | pIC50 [1] | pIC50 (rat MASP1) | SMILES |
| --- | --- | --- | --- | --- | --- |
| 8.03 | 7.89 | 7.92 | 7.75 | 6.80 | CC[C@H](C)[C@@H]1NC(=O)CN(C)C(=O)CCCCCNC(=O)[C@H]([C@@H](C)CC)NC(=O)[C@H]2NC(=O)[C@H]([C@@H](C)CC)NC(=O)[C@@H]3CCCN3C(=O)[C@@H]3CCCN3C(=O)[C@H](CC(C)(C)C)NC(=O)[C@H](CO)NC(=O)[C@H](CCCNC(=N)N)NC(=O)[C@H](CO)NC(=O)[C@H](CSSC2(C)C)NC1=O [Example 64, N-{3-[(5aS,11S,14S,17S,20S,23R,26S,39S,42R,45S,47aS)-26,39,45-tri[(2S)-butan-2-yl]-11-(2,2-dimethylpropyl)-14,20-bis(hydroxymethyl)-30,48,48-trimethyl-5,10,13,16,19,22,25,28,31,38,41,44,47-tridecaoxohexatetracontahydro-5H-23,42-(methanodithiomethano)dipyrrolo[2,1-1:2′,1′-o][1,4,7,10,13,16,19,22,25,28,31,34,37]tridecaazacyclotritetracontin-17-yl]propyl}guanidine] (cyclo([Ahx][Sar]ICSRS[tBuAla]PPI[Pen]I); disulfide 4-12) |
| 8.07 | 7.74 | 7.48 | 7.40 | 6.74 | CC[C@H](C)[C@@H]1NC(=O)CN(C)C(=O)CCCCCNC(=O)[C@@H]2CCCN2C(=O)[C@H]([C@@H](C)CC)NC(=O)[C@H]2NC(=O)[C@H]([C@@H](C)CC)NC(=O)[C@@H]3CCCN3C(=O)[C@@H]3CCCN3C(=O)[C@H](CC(C)(C)C)NC(=O)[C@H](CO)NC(=O)[C@H](CCCNC(=N)N)NC(=O)[C@H](CO)NC(=O)[C@H](CSSC2(C)C)NC1=O [Example 54, N-{3-[(6S,9S,12S,15S,18R,21S,33aS,39S,42R,45S,47aS,52aS)-21,39,45-tri[(2S)-butan-2-yl]-6-(2,2-dimethylpropyl)-9,15-bis(hydroxymethyl)-25,53,53-trimethyl-5,8,11,14,17,20,23,26,33,38,41,44,47,52-tetradecaoxopentacontahydro-1H,5H-18,42-(methanodithiomethano)tripyrrolo[2,1-c:2′,1′-o:2″,1″-r][1,4,7,10,13,16,19,22,25,28,31,34,37,40]tetradecaazacyclohexatetracontin-12-yl]propyl}guanidine] |
| 8.10 | 7.94 | 8.03 | 7.63 | 7.10 | CC[C@H](C)[C@@H]1NC(=O)CCCCCNC(=O)[C@H]([C@@H](C)CC)NC(=O)[C@H]2NC(=O)[C@H]([C@@H](C)CC)NC(=O)[C@@H]3CCCN3C(=O)[C@@H]3CCCN3C(=O)[C@H](CC(C)(C)C)NC(=O)[C@H](CO)NC(=O)[C@H](CCCNC(=N)N)NC(=O)[C@H](CO)NC(=O)[C@H](CSSC2(C)C)NC1=O [Example 52, N-{3-[(5aS,11S,14S,17S,20S,23R,26S,36S,39R,42S,44aS)-26,36,42-tri[(2S)-butan-2-yl]-11-(2,2-dimethylpropyl)-14,20-bis(hydroxymethyl)-45,45-dimethyl-5,10,13,16,19,22,25,28,35,38,41,44-dodecaoxodotetracontahydro-1H,5H-23,39-(methanodithiomethano)dipyrrolo[2,1-1:2′,1′-o][1,4,7,10,13,16,19,22,25,28,31,34]dodecaazacyclotetracontin-17-yl]propyl}guanidine] (cyclo([Ahx]ICSRS[tBuAla]PPI[Pen]I); disulfide 3-11) |
| 7.24 | 7.89 | 8.27 | 7.69 | 6.48 | CC[C@H](C)[C@@H]1NC(=O)CCCCC(=O)NC[C@@H](C(N)=O)NC(=O)[C@H](CC(=O)O)NC(=O)[C@@H]2CCCN2C(=O)[C@H]([C@@H](C)CC)NC(=O)[C@H]2NC(=O)[C@H]([C@@H](C)CC)NC(=O)[C@@H]3CCCN3C(=O)[C@@H]3CCCN3C(=O)[C@H](CC(C)(C)C)NC(=O)[C@H](CO)NC(=O)[C@H](CCCNC(=N)N)NC(=O)[C@H](CO)NC(=O)[C@H](CSSC2(C)C)NC1=O [Example 60] (ICSRS[tBuAla]PPI[Pen]IPD[Dap]-NH2; disulfide 2-10; linker N-14 via Adipoyl) |
| 8.05 | 7.34 | 6.19 | 7.09 | 6.96 | CC[C@H](C)[C@@H]1NC(=O)[C@@H]2CCCN2C(=O)[C@@H]2CCCN2C(=O)[C@H](CC(C)(C)C)NC(=O)[C@H](CO)NC(=O)[C@H](CCCNC(=N)N)NC(=O)[C@H](CO)NC(=O)[C@@H]2CSSC(C)(C)[C@H](NC1=O)C(=O)N[C@@H]([C@@H](C)CC)C(=O)N1CCC[C@H]1C(=O)N1CCC[C@H]1C(=O)N[C@@H]([C@@H](C)CC)C(=O)N2 [Example 58, N-{3-[(6S,9S,12S,15S,18R,21S,23aS,28aS,34S,37R,40S,42aS,47aS)-21,34,40-tri[(2S)-butan-2-yl]-6-(2,2-dimethylpropyl)-9,15-bis(hydroxymethyl)-48,48-dimethyl-5,8,11,14,17,20,23,28,33,36,39,42,47-tridecaoxotetratetracontahydro-1H,5H,28H-18,37-(methanodithiomethano)tetrapyrrolo[1,2-a:1′,2′-d:1″,2″-p:1′″,2′″-s][1,4,7,10,13,16,19,22,25,28,31,34,37]tridecaazacyclononatriacontin-12-yl]propyl}guanidine] (cyclo(CSRS[tBuAla]PPI[Pen]IPPI); disulfide 1-9) |
| 8.17 | 7.72 | 7.08 | 7.35 | 7.02 | CC[C@H](C)[C@@H]1NC(=O)[C@H](C)NC(=O)CCCCCNC(=O)[C@@H]2CCCN2C(=O)[C@H]([C@@H](C)CC)NC(=O)[C@H]2NC(=O)[C@H]([C@@H](C)CC)NC(=O)[C@@H]3CCCN3C(=O)[C@@H]3CCCN3C(=O)[C@H](CC(C)(C)C)NC(=O)[C@H](CO)NC(=O)[C@H](CCCNC(=N)N)NC(=O)[C@H](CO)NC(=O)[C@H](CSSC2(C)C)NC1=O [Example 53, N-{3-[(6S,9S,12S,15S,18R,21S,24S,33aS,39S,42R,45S,47aS,52aS)-21,39,45-tri[(2S)-butan-2-yl]-6-(2,2-dimethylpropyl)-9,15-bis(hydroxymethyl)-24,53,53-trimethyl-5,8,11,14,17,20,23,26,33,38,41,44,47,52-tetradecaoxopentacontahydro-1H,5H-18,42-(methanodithiomethano)tripyrrolo[2,1-c:2′,1′-o:2″,1″-r][1,4,7,10,13,16,19,22,25,28,31,34,37,40]tetradecaazacyclohexatetracontin-12-yl]propyl}guanidine] (cyclo(AICSRS[tBuAla]PPI[Pen]IP[Ahx]); disulfide 3-11) |
| 8.22 | 8.10 | 7.12 | 7.47 | 7.36 | CC[C@H](C)[C@@H]1NC(=O)CNC(=O)CNC(=O)[C@H](C)NC(=O)[C@@H](CC(=O)O)NC(=O)[C@@H]2CCCN2C(=O)[C@H]([C@@H](C)CC)NC(=O)[C@H]2NC(=O)[C@H]([C@@H](C)CC)NC(=O)[C@@H]3CCCN3C(=O)[C@@H]3CCCN3C(=O)[C@H](CC(C)(C)C)NC(=O)[C@H](CO)NC(=O)[C@H](CCCNC(=N)N)NC(=O)[C@H](CO)NC(=O)[C@H](CSSC2(C)C)NC1=O [Example 39] (cyclo(AGGICSRS[tBuAla]PPI[Pen]IP[dD]); disulfide 5-13) |
